Paper PMC11459959, “Discovery of new acetamide derivatives of 5-indole-1,3,4-oxadiazol-2-thiol as inhibitors of HIV-1 Tat-mediated viral transcription” (Antimicrobial Agents and Chemotherapy, 2024)

Key:
Type in all cases: cell-based
[1] = test system: PI-resistant HIV-1 strain 11803; assay: microbe, parasite or virus in culture; conditions: Human immunodeficiency virus 1, PBMC
Source text: (§1) The Tzm-bl-derived dual Tat reporter; TZM-bl/Tat/Rluc (bl-DTR) cells were established from TZM-bl cells using two Dox-inducible lentiviral expression cassettes cloned with Flag-tagged Tat86 and the R-Luc gene, as described in our previous study ([11]). TZM-bl, A3.01, J1.1, and J-Lat 6.3 cells as well as the HIV-1 molecular clone pNL4-3, pNL(AD8), ARV-resistant HIV-1 strains, and HIV-1NL43-IRES-eGFP (pBR43IeG-nef^+, gifted by Dr. Frank Kirchhoff) ([52]) were provided by the National Institute of Health HIV Reagent Program (NIH, Bethesda, MD, USA). HeLa (CCL-2) and 293T (CRL-3216) cell lines were purchased from the American Type Culture Collection (ATCC, Manassas, VA, USA). The bl-DTR, TZM-bl, HeLa, and 293T cells were cultured in Dulbecco’s modified Eagle’s medium supplemented with 1% penicillin–streptomycin and 10% (vol/vol) heat-inactivated fetal bovine serum (all from Gibco-BRL, Gaithersburg, MD, USA), and 1 µg/mL of puromycin and 200 µg/mL of zeocin were additionally supplemented for the bl-DTR cells. PBMCs were purchased from AllCells (Alameda, CA, USA) and cultured as previously described ([12]). The information on ARV-resistant HIV-1 strains was described in previous reports as follows: NNRTI-resistant 12241 and 12243 ([53]); NRTI-resistant 7396, 7406, and 7407 ([54]); INSTI-resistant 11847 and 11849 ([55], [56]); and PI-resistant 11800 and 11803 ([57]). Each molecular HIV-1 clone was transfected to 293T cells, as previously described ([58]), to obtain infectious HIV-1 particles. Virus-containing cell culture supernatants were collected 3 days after transfection, and filtered through a 0.45-µm membrane filter (Millipore Sigma, Burlington, MA, USA) to remove cell debris. The viral titration was performed as described previously ([59]) with some minor modifications. In brief, 1 × 10^4 TZM-bl cells seeded in 96-well plates were infected with 200 µL of virus-containing medium diluted serially twofold. The incubation was for 2 days and the experiment was performed in triplicate; the infection time minimized the virus spread ([59]). The titration of the infectious viral particles was performed with a ß-Gal staining assay using the ßeta-Galactosidase Staining Kit (Mirus Bio, Madison, WI, USA) following the manufacturer’s protocols. In brief, the infected cells were washed with phosphate-buffered saline (PBS) and fixed using a Cell Fixative Working solution. The cells were washed with PBS and stained using the Cell Staining Working Solution containing X-gal. The infected blue-colored cells were counted under a microscope (100× magnification). The infectious virus titer was determined as a mean value of blue-colored cells count × dilution factor and used for determining the multiplicity of infection (MOI) in each infection experiment.
(§2) The inhibitory effects of the compounds on viral replication were determined with some minor modifications, as previously described ([12], [62]). […] PBMCs (4 × 10^5) pre-activated with PHA-M for 3 days were washed with fresh media to remove excess PHA-M and subsequently infected with HIV-1NL4-3 or HIV-1AD8 or PIs-resistant HIV-1 strains as A3.01 infection. After infection, the infectious media were replaced with fresh media supplemented with international 10 units (IU)/mL of IL-2 and the indicated compounds. At 72 h after infection, the inhibitory effect of the compounds on viral replication was determined by measuring the p24 amount, an HIV capsid protein, using an HIV-1 p24 […] kit (PerkinElmer, Waltham, MA, USA). Cell viability was determined as described above. The inhibitory effects on provirus reversing in J1.1 and J-Lat 6.3 cells were determined as previously described ([12], [41], [63]) with some minor modifications.

[2] = test system: PI-resistant HIV-1 strain 11800; assay: microbe, parasite or virus in culture; conditions: Human immunodeficiency virus 1, PBMC
Source text: as §1, §2

HIV-1NL4-3 = assay: HIV-1 infectivity in TZM-bl cells (β-gal activity); conditions: Human immunodeficiency virus 1, TZM-bl, 48 h, read-out: EC50 (β-gal)
Experimental: (C) TZM-bl cells were infected with the HIV-1NL4-3 strain at an MOI of 1 upon treatment of compounds. At 48 h after infection, the viral infectivity and cell viability were determined as described above (Fig. 1). […] (E) TZM-bl cells were infected with the HIV-1NL4-3 at an MOI of 1 upon compound 13. At 48 h after infection, the β-gal activity indicating viral infectivity was determined using the β-gal Enzyme Assay kit. […] (C and E) The dose-response curves show the relative activity compared with that of the DMSO vehicle (mean ± SD; n = 3).
The TZM-bl cells (also referred to as JC53BL-13) expressing human CD4, CXCR4, and CCR5 carrying the F-Luc and lacZ genes downstream of the HIV-1 LTR promoter ([60]) were used to determine the inhibitory effect of the compounds on HIV-1 infection, as previously described ([11], [12], [61]). In brief, 1 × 10^4 cells were cultured in 96-well plates for 24 h and subsequently treated with compounds at the indicated concentrations. […] After 48 h, the inhibitory effect of the compounds was determined using a Bright Glo luciferase assay kit (Promega) or β-Galactosidase Enzyme Assay kit (Promega). […] Cell viability was determined using the resazurin-based PrestoBlue Cell Viability Reagent (Thermo Fisher Scientific, Waltham, MA, USA) following the manufacturer’s instructions.

Cc1[nH]c2ccc(-c3nnc(SCC(=O)N4CCCC4)o3)cc2c1C [Compound 13, 2-((5-(2,3-Dimethyl-1H-indol-5-yl)-1,3,4-oxadiazol-2-yl)thio)-1-(pyrrolidin-1-yl)ethan-1-one]
EC50 [1]: 0.28 ± 0.04 µM
EC50 [2]: 0.81 ± 0.03 µM
EC50 (HIV-1NL4-3): 0.22 ± 0.03 µM

Cc1[nH]c2ccc(-c3nnc(SCC(=O)N4CCCCC4)o3)cc2c1C [Compound 9, 2-((5-(2,3-Dimethyl-1H-indol-5-yl)-1,3,4-oxadiazol-2-yl)thio)-1-(piperidin-1-yl)ethan-1-one]
EC50 [1]: 0.26 ± 0.08 µM
EC50 [2]: 0.54 ± 0.25 µM
